The results in this text go back to patent publication US20230374038A1, “MODULATORS OF CYSTIC FIBROSIS TRANSMEMBRANE CONDUCTANCE REGULATOR” (VERTEX PHARMACEUTICALS INCORPORATED, priority 2020, published 2023).

“And” between values parts separate entries of the source, which are not always exact repeats. Equal values may be shown once. Read-outs that look alike come from different tables or passages of the source.

The conditions of data set [1]: amide bond, DMF.
The target in data set [2] is T1, CFTR (Homo sapiens, UniProt P13569). Put plainly: Membrane Potential Dye, Enteroid Assay B. It is filed as cell-based. The note with it: for EC50: read-out: Ent. B EC50. Summed up:
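Membrane-potential fluorescence read over 15 min after chloride-free stimulation (forskolin 10 μM, IBMX 100 μM, Compound III 300 nM), with CaCCinh-A01 and Chicago Sky Blue present. Enteroids had 18-24 h compound exposure at 37 °C; activity given as % of the triple-combination corrector/potentiator reference response.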

In data set [3] the target is T1, CFTR. Put plainly: Membrane Potential Dye, Enteroid Assay A. The note with it: for EC50: read-out: Ent. A EC50. It is filed as cell-based. As to the method:
Base medium (ADF+++) consisted of Advanced DMEM/Ham's F12, 2 mM Glutamax, 10 mM HEPES, 1 µg/mL penicillin/streptomycin.
Intestinal enteroid maintenance medium (IEMM) consisted of ADF+++, 1× B27 supplement, 1× N2 supplement, 1.25 mM N-acetyl cysteine, 10 mM Nicotinamide, 50 ng/mL hEGF, 10 nM Gastrin, 1 pg/mL hR-spondin-1, 100 ng/mL hNoggin, TGF-b type 1 inhibitor A-83-01, 100 μg/mL Primocin, […] P38 MAPK inhibitor SB202190.
Bath 1 Buffer consisted of 1 mM MgCl2, 160 mM NaCl, 4.5 mM KCl, 10 mM HEPES, 10 mM Glucose, 2 mM CaCl2).
Chloride Free Buffer consisted of 1 mM Magnesium Gluconate, 2 mM Calcium Gluconate, 4.5 mM Potassium Gluconate, 160 mM Sodium Gluconate, 10 mM HEPES, 10 mM Glucose.
Bath1 Dye Solution consisted of Bath 1 Buffer, 0.04% Pluronic F127, […] Methyl Oxonol, 30 μM CaCCinh-A01, 30 μM Chicago Sky Blue.
Chloride Free Dye Solution consisted of Chloride Free Buffer, 0.04% Pluronic F127, 20 μM Methyl Oxonol, 30 μM CaCCinh-A01, 30 μM Chicago Sky Blue.
Chloride Free Dye Stimulation Solution consisted of Chloride Free Dye Solution, 10 μM forskolin, 100 μM IBMX, and 300 nM Compound III.
Human intestinal epithelial enteroid cells were obtained from the Hubrecht Institute for Developmental Biology and Stem Cell Research, Utrecht, The Netherlands and expanded in T-Flasks as previously described (Dekkers J F, Wiegerinck C L, de Jonge H R, Bronsveld I, Janssens H M, de Winter-de Groot K M, Brandsma A M, de Jong N W M, Bijvelds M J C, Scholte B J, Nieuwenhuis E E S, van den Brink S, Clevers H, van der Ent C K, Middendorp S and M Beekman J M. A functional CFTR assay using primary cystic fibrosis intestinal organoids. Nat Med. 2013 July; 19(7):939-45.).
Cells were recovered in cell recovery solution, collected by centrifugation at 650 rpm for 5 min at 4° C., resuspended in TryPLE and incubated for 5 min at 37° C. Cells were then collected by centrifugation at 650 rpm for 5 min at 4° C. and resuspended in IEMM containing 10 μM ROCK inhibitor (RI). The cell suspension was passed through a 40 μm cell strainer and resuspended at 1×10^6 cells/mL in IEMM containing 10 μM RI. Cells were seeded at 5000 cells/well into multi-well plates and incubated for overnight at 37° C., 95% humidity and 5% CO2 prior to assay.
Enteroid cells were incubated with test compound in IEMM for 18-24 hours at 37° C., 95% humidity and 5% CO2. […] Briefly, cells were washed 5 times in Bath 1 Buffer. Bath 1 Dye Solution was added, and the cells were incubated for 25 min at room temperature. Following dye incubation, cells were washed 3 times in Chloride Free Dye Solution. Chloride transport was initiated by addition of Chloride Free Dye Stimulation Solution and the fluorescence signal was read for 15 min. […] Chloride transport was then expressed as a percentage of the chloride transport following treatment with 3 μM (S)—N-((6-aminopyridin-2-yl)sulfonyl)-6-(3-fluoro-5-isobutoxyphenyl)-2-(2,2,4-trimethylpyrrolidin-1-yl)nicotinamide, 3 μM (R)-1-(2,2-difluorobenzo[d][1,3]dioxol-5-yl)-N-(1-(2,3-dihydroxypropyl)-6-fluoro-2-(1-hydroxy-2-methylpropan-2-yl)-1H-indol-5-yl)cyclopropanecarboxamide and 300 nM acute N-[2,4-bis(1,1-dimethylethyl)-5-hydroxyphenyl]-1,4-dihydro-4-oxoquinoline-3-carboxamide triple combination control (% Activity).

T1 sequence (P13569 with tags, fused parts or gaps DEL508-508): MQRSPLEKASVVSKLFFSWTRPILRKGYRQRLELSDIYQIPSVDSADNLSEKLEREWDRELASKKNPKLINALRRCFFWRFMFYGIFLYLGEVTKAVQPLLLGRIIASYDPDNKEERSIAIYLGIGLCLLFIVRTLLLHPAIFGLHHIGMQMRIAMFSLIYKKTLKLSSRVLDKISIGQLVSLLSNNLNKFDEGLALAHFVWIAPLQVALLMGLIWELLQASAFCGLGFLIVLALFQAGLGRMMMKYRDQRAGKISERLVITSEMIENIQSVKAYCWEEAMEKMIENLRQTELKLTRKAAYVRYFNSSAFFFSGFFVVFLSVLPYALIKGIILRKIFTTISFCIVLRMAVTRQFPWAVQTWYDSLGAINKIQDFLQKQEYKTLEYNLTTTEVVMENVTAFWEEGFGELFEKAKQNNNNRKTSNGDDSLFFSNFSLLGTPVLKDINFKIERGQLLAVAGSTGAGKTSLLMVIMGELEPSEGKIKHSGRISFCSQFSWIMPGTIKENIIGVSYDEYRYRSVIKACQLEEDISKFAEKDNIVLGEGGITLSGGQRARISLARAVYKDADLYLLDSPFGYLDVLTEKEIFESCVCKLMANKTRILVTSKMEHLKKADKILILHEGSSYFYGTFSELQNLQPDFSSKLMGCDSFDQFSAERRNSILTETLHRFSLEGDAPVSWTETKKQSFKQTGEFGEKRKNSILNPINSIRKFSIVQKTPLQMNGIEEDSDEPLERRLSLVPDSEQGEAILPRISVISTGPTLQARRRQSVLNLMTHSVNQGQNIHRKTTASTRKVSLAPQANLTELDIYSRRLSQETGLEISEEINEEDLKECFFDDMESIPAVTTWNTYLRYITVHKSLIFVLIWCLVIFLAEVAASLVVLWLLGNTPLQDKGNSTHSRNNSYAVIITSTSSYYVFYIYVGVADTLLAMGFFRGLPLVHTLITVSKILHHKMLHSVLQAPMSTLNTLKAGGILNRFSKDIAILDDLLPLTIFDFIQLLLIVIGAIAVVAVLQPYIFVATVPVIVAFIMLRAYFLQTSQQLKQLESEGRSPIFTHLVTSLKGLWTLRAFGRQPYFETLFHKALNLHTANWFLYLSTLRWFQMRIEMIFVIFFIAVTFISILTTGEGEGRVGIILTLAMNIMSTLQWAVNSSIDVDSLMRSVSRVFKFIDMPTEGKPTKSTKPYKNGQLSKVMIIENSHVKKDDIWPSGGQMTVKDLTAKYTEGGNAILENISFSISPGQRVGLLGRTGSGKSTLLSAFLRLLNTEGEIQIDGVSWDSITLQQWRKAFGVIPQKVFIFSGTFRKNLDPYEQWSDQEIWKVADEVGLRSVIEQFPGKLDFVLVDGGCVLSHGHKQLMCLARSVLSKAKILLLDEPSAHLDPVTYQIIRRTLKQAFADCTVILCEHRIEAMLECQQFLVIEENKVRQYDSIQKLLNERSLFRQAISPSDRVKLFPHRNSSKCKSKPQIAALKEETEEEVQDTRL

Regarding `COc1c2nc(nc1-c1c(C)cccc1C)NS(=O)(=O)c1cccc(c1)C(=O)N(C1CC3(CCN(C(=O)OC(C)(C)C)CC3)C1)[C@H](CC(C)C)CO2`, the ring closure, yield after HPLC in data set [1] (13-membered ring, HATU/DIEA) is 22%.

In turn, `Cc1ccc2cc1Oc1cc(-c3c(C)cccc3C)nc(n1)NS(=O)(=O)c1cccc(c1)NC2=O` showed a ring closure, yield after HPLC in data set [1] (from Cc1ccc(C(=O)O)cc1Oc1cc(-c2c(C)cccc2C)nc(NS(=O)(=O)c2cccc(N)c2)n1, 14-membered ring, HATU/DIEA, 78.0 mM, 25.0 °C, 0.083 h, 3 steps) of 26%.

As for `Cc1cccc(C(C)C)c1-c1nc2nc(c1C)OC[C@@H](CC(C)(C)C)N(Cc1ncc(N3CCOCC3)cn1)C(=O)c1cccc(c1)S(=O)(=O)N2`, the ring closure, yield after HPLC in data set [1] (from Cc1cccc(C(C)C)c1-c1nc(NS(=O)(=O)c2cccc(C(=O)O)c2)nc(OC[C@@H](CC(C)(C)C)NCc2ncc(N3CCOCC3)cn2)c1C, 13-membered ring, CDMT/NMM, 55.0 mM, 19.0 h) is 18% and 11%.

`Cc1cccc(C)c1-c1nc2nc(c1C)OC[C@@H](CC(C)(C)C)N(C1CC3(C1)CC(C(C)(C)O)C3)C(=O)c1cccc(c1)S(=O)(=O)N2` (stereo partly shown): in data set [1] (from Cc1cccc(C)c1-c1nc(NS(=O)(=O)c2cccc(C(=O)O)c2)nc(OC[C@@H](CC(C)(C)C)NC2CC3(C2)CC(C(C)(C)O)C3)c1C, 13-membered ring, HATU/DIEA, 28.7 mM, 16.0 h), the ring closure, yield after HPLC came to 6%.

As for `Cc1cccc(C)c1-c1nc2nc(c1C)OC[C@@H](CC(C)(C)C)N(C1CC3(CC(NC(=O)OC(C)(C)C)C3)C1)C(=O)c1cccc(c1)S(=O)(=O)N2` (stereo partly shown), the ring closure, yield after HPLC in data set [1] (from Cc1cccc(C)c1-c1nc(NS(=O)(=O)c2cccc(C(=O)O)c2)nc(OC[C@@H](CC(C)(C)C)NC2CC3(CC(NC(=O)OC(C)(C)C)C3)C2)c1C, 13-membered ring, HATU/DIEA, 14.3 mM, 72.0 h) amounted to 62%.

`Cc1cccc(CC(C)(C)C)c1-c1nc2nc(c1C)OC[C@@H](CC(C)(C)C)N(Cc1ncc(N3CCC(C)(C)C3)cn1)C(=O)c1cccc(c1)S(=O)(=O)N2`: the ring closure, yield after HPLC in data set [1] (from Cc1cccc(CC(C)(C)C)c1-c1nc(NS(=O)(=O)c2cccc(C(=O)O)c2)nc(OC[C@@H](CC(C)(C)C)NCc2ncc(N3CCC(C)(C)C3)cn2)c1C, 13-membered ring, CDMT/NMM, 11.0 mM, 16.0 h, 2 steps) amounted to 11%; in data set [1] (from Cc1cccc(CC(C)(C)C)c1-c1nc(NS(=O)(=O)c2cccc(C(=O)O)c2)nc(OC[C@@H](CC(C)(C)C)NCc2ncc(N3CCC(C)(C)C3)cn2)c1C, 13-membered ring, CDMT/NMM, 12.0 mM, 16.0 h, 2 steps) it was 7%.

Molecule `Cc1cccc(CC(C)C)c1-c1nc2nc(c1C(F)(F)F)OC[C@@H](CC(C)(C)C)N(Cc1ncc(N3CCOCC3)cn1)C(=O)c1cccc(c1)S(=O)(=O)N2` gave a ring closure, yield after HPLC in data set [1] (from Cc1cccc(CC(C)C)c1-c1nc(NS(=O)(=O)c2cccc(C(=O)O)c2)nc(OC[C@@H](CC(C)(C)C)NCc2ncc(N3CCOCC3)cn2)c1C(F)(F)F, 13-membered ring, CDMT/NMM, 92.0 mM, 4.0 h) of 37%.

For the molecule `Cc1cccc(CC2CCOCC2)c1-c1nc2nc(c1C)OC[C@@H](CC(C)(C)C)N(Cc1ncc(N3CCOCC3)cn1)C(=O)c1cccc(c1)S(=O)(=O)N2`, in data set [1] (from Cc1cccc(CC2CCOCC2)c1-c1nc(NS(=O)(=O)c2cccc(C(=O)O)c2)nc(OC[C@@H](CC(C)(C)C)NCc2ncc(N3CCOCC3)cn2)c1C, 13-membered ring, CDMT/NMM, 41.0 mM, 19.0 h), the ring closure, yield after HPLC stood at 25%.

The molecule `Cc1cccc(COC(C)C)c1-c1nc2nc(c1C)OC[C@@H](CC(C)(C)C)N(Cc1ncc(N3CCC(C)(C)C3)cn1)C(=O)c1cccc(c1)S(=O)(=O)N2` came in with a ring closure, yield after HPLC in data set [1] (from Cc1cccc(COC(C)C)c1-c1nc(NS(=O)(=O)c2cccc(C(=O)O)c2)nc(OC[C@@H](CC(C)(C)C)NCc2ncc(N3CCC(C)(C)C3)cn2)c1C, 13-membered ring, CDMT/NMM, 11.0 mM, 5.0 h, 2 steps) of 13%.

In data set [1] (from Cc1cccc(C)c1-c1nc(NS(=O)(=O)c2cccc(C(=O)O)c2)nc(OC[C@@H](CC(C)C)NC2CC(OC(C)C)C2)c1C, 13-membered ring, HATU/DIEA, 25.0 °C, 2 steps), `Cc1cccc(C)c1-c1nc2nc(c1C)OC[C@@H](CC(C)C)N(C1CC(OC(C)C)C1)C(=O)c1cccc(c1)S(=O)(=O)N2` (single isomer, unassigned; diastereomer 1) had a ring closure, yield after HPLC of 9%.

`CCc1c2nc(nc1-c1c(C)cccc1C)NS(=O)(=O)c1cccc(c1)C(=O)N(C1CC3(CCN(C(=O)OC(C)(C)C)CC3)C1)[C@H](CC(C)C)CO2` [Compound 158, tert-butyl 2-[(11R)-6-(2,6-dimethylphenyl)-7-ethyl-11-isobutyl-2,2,13-trioxo-9-oxa-2λ^6-thia-3,5,12,19-tetrazatricyclo[12.3.1.14,8]nonadeca-1(17),4(19),5,7,14(18),15-hexaen-12-yl]-7-azaspiro[3.5]nonane-7-carboxylate]: at CFTR [2], the “Ent. B Max Activity” value is on record as “+++ (+++ is >60%)” and the EC50 was under 1000 nM. Besides, on CFTR [3], the “Ent. A Max Activity” value was “+++ (+++ is >60%)” and the EC50 was under 1000 nM.

For the molecule `CCc1c2nc(nc1-c1c(C)cccc1C)NS(=O)(=O)c1cccc(c1)C(=O)N(C1CC3(CCN(C)CC3)C1)[C@H](CC(C)C)CO2` [Compound 159, (11R)-6-(2,6-Dimethylphenyl)-7-ethyl-11-isobutyl-12-(7-methyl-7-azaspiro[3.5]nonan-2-yl)-2,2-dioxo-9-oxa-2λ^6-thia-3,5,12,19-tetrazatricyclo[12.3.1.14,8]nonadeca-1(17),4(19),5,7,14(18),15-hexaen-13-one], at CFTR [2], the “Ent. B Max Activity” value was “+++ (+++ is >60%)” and the EC50 is under 1000 nM. In addition, at CFTR [3], the “Ent. A Max Activity” value is on record as “+++ (+++ is >60%)” and the EC50 is under 1000 nM.

As to `CC(C)C[C@@H]1COc2nc(nc(-c3ccccc3C(C)C)c2C(F)(F)F)NS(=O)(=O)c2cccc(c2)C(=O)N1` [Compound 164, (11R)-11-Isobutyl-6-(2-isopropylphenyl)-2,2-dioxo-7-(trifluoromethyl)-9-oxa-2λ^6-thia-3,5,12,19-tetrazatricyclo[12.3.1.14,8]nonadeca-1(18),4,6,8(19),14,16-hexaen-13-one], at CFTR [2], the “Ent. B Max Activity” value is “+++ (+++ is >60%)” and the EC50 was under 1000 nM. On CFTR [3], the “Ent. A Max Activity” value is reported as “+++ (+++ is >60%)” and the EC50 is under 1000 nM.

As for `Cc1cccc(C)c1-c1nc2nc(c1OC(C)C)OC[C@@H](CC(C)C)N(C1CC3(CCN(C)CC3)C1)C(=O)c1cccc(c1)S(=O)(=O)N2` [Compound 176], at CFTR [2], the “Ent. B Max Activity” value is given as “+++ (+++ is >60%)” and the EC50 was under 1000 nM. Moreover, on CFTR [3], the “Ent. A Max Activity” value was “+++ (+++ is >60%)” and the EC50 is under 1000 nM.

Turning to `Cc1cccc(C)c1-c1nc2nc(c1OC(C)C)OC[C@@H](CC(C)C)N(C1CC3(CCN(C(=O)OC(C)(C)C)CC3)C1)C(=O)c1cccc(c1)S(=O)(=O)N2` [Compound 177], at CFTR [2], the “Ent. B Max Activity” value was “+++ (+++ is >60%)” and the EC50 was under 1000 nM. At CFTR [3], the “Ent. A Max Activity” value is “+++ (+++ is >60%)” and the EC50 is under 1000 nM.

As for `CCc1c2nc(nc1-c1c(C)cccc1C)NS(=O)(=O)c1cccc(c1)C(=O)NCC(c1ccc(C(C)(C)C)cc1)O2` (stereo not shown) [Compound 178], at CFTR [3], the “Ent. A Max Activity” value is recorded as “+++ (+++ is >60%)” and the EC50 was under 1000 nM.

Turning to `CCc1c2nc(nc1-c1c(C)cccc1C)NS(=O)(=O)c1cccc(c1)C(=O)N[C@H](CC(C)C)CO2` [Compound 190], on CFTR [2], the “Ent. B Max Activity” value is recorded as “+++ (+++ is >60%)” and the EC50 was under 1000 nM. In addition, on CFTR [3], the “Ent. A Max Activity” value is listed as “+++ (+++ is >60%)” and the EC50 is under 1000 nM.

A word on the EC50: it is the concentration at which the effect is half-maximal.
